This note sets out measurements from article PMC4047118, “BM-1197: A Novel and Specific Bcl-2/Bcl-xL Inhibitor Inducing Complete and Long-Lasting Tumor Regression In Vivo” (PLoS ONE, 2014).

For one experiment, the target named is Bcl-xL (Homo sapiens, UniProt Q07817). Briefly: fluorescence-polarization (FP) binding assay, Bcl-xL. As to conditions: means ± SD (n≥3). An excerpt:
BM-1197 ( Fig 1 ), was synthesized in a similar manner as described for BM-1074 [16]. We evaluated the binding affinities of BM-1197 to Bcl-2, Bcl-xL and Mcl-1 proteins using our optimized fluorescence-polarization (FP) binding assays.
Data are expressed as means ± SD (n≥3).

In experiment [1] the test system is MCL1-wild-type (WT) MEF cells. Briefly: cell growth inhibition, WST assay, wild-type MEF. The experiment is classed as cell-based. The following applies: Mus musculus, 72 h, 3 days. The method, then: (§1) All the SCLC cell lines were purchased from American Type Culture Collection (Manassas, VA) and cultured as recommended. All these cell lines were passaged fewer than 6 months after purchase. MCL1 knockout (MCL1^−/−) MEF cells were kindly provided by Dr. David Huang (The Walter and Eliza Hall Institute of Medical Research, Melbourne, Australia). Cell growth inhibition was evaluated by means of a WST-8 assay (Dojindo, Rockville, MD) as described previously. Mitochondrial membrane potential was determined by JC-1 staining using a JC-1 Mitochondrial Membrane Potential Assay kit (Cayman). Apoptosis analysis was performed using an Annexin V/propidium iodide (PI) apoptosis detection kit (Roche Applied Sciences, Indianapolis, IN).
(§2) (B) MCL1^−/− cells were treated with 100 nM of BM-1197 for 16 h and stained with Annexin V/PI for flow cytometry. […] They are given in the order upper left, upper right, lower left, lower right.

In experiment [2] the test system is MCL1-deficient (MCL1−/−) MEF cells. Briefly: cell growth inhibition, WST assay, MCL1-deficient MEF. Type of experiment: cell-based, mouse. Here is the method:
as §1, §2

The test system of a further experiment is H1963. Briefly: SCLC cell growth inhibition (WST-8), H1963. Type of experiment: cell-based. As to conditions: Homo sapiens, NCI-H1963; 96-h incubation, means ± SD (n = 3–6). The method, then: as §1
On the technique in general: Formazan colour is commonly taken as a measure of viable cells.

Another experiment deals with H211. Briefly: SCLC cell growth inhibition (WST-8), H211. Type of experiment: cell-based. The following applies: Homo sapiens, NCI-H211; 96-h incubation, means ± SD (n = 3–6). Here is the method: as §1
In another experiment the test system is H187. Briefly: SCLC cell growth inhibition (WST-8), H187. The experiment is classed as cell-based. The following applies: Homo sapiens, NCI-H187; 96-h incubation, means ± SD (n = 3–6). Here is the method:
as §1

Another experiment deals with DMS79. In words: SCLC cell growth inhibition (WST-8), DMS79. The following applies: Homo sapiens, DMS-79; 96-h incubation, means ± SD (n = 3–6). The experiment is classed as cell-based. Here is the method:
as §1

In the next experiment the test system is SW1271. In words: SCLC cell growth inhibition (WST-8), SW1271. Type of experiment: cell-based. As to conditions: Homo sapiens, 96-h incubation, means ± SD (n = 3–6). Here is the method: as §1
Another experiment relates to DMS273. Briefly: SCLC cell growth inhibition (WST-8), DMS273. Type of experiment: cell-based. The following applies: Homo sapiens, DMS-273; 96-h incubation, means ± SD (n = 3–6). The method, then:
as §1

Experiment [3] concerns BM-1197-insensitive SCLC cell lines. In words: MCL1 shRNA knockdown, growth inhibition by WST assay. The following applies: MCL1 shRNA 2 days, then drug 2 days. Type of experiment: cell-based, human. The method, then:
ON-TARGETplus SMARTpools for mouse Bax and Bak and non-targeting negative control siRNAs were obtained from Dhamarcon. Transfection was performed using Lipofectamine RNAiMAX (Invitrogen). Lentiviral vector for scrambled and human MCL1 shRNA and lentivirus infection were described previously. Immunoblotting was performed using a published procedure. For immunoprecipitation assays, cells lysed with CHAPS buffer (150 mM NaCl, 10 mM HEPES [pH 7.4], 0.5% Chaps) or Triton buffer (150 mM NaCl, 10 mM HEPES [pH 7.4], 0.5% Triton X-100) supplemented with Complete protease inhibitors (Roche). Immunoprecipitation and immunoblot assays were performed with the indicated antibodies. Active Bax was detected by immunoprecipitation with the Bax 6A7 antibody, which recognizes only the conformationally changed Bax protein [27].
Figure 12 Effects of MCL1 knockdown on BM-1197-induced apoptosis. (A) Cells were transduced with lentiviral particles containing scrambled (SCR) or MCL1-specific shRNAs for 2 days, then treated with BM-1197 for 2 days. The growth-inhibitory activity of BM-1197 was assessed by WST assay. Data are representative of three independent experiments. (B) Cells were transduced with lentiviral particles containing scrambled (SCR) or MCL1-specific shRNAs for 2 days then treated with BM-1197 (100 nM) for 20 h before harvested for immunoblotting.

Bcl-xL, sequence (Q07817 whole entry): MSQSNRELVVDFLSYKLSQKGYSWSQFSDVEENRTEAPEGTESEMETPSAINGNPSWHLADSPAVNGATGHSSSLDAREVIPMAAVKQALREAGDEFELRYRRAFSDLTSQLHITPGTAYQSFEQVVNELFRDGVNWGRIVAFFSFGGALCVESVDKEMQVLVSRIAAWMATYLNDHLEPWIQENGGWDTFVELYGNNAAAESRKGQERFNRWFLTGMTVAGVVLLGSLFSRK

By IC50 is commonly meant the concentration that gives 50% inhibition. Higher therefore signals weaker potency. A word on the Ki: it is the dissociation constant of the complex between target and ligand, obtained from inhibition or displacement. With `Cc1c(S(C)(=O)=O)c(-c2cc(F)cc(N3CCN(c4ccc(NS(=O)(=O)c5ccc(N[C@H](CCN6CCC(O)CC6)CSc6ccccc6)c(S(=O)(=O)C(F)(F)F)c5)cc4)CC3)c2)c(-c2ccc(Cl)cc2)n1C(C)C` [BM-1197], the IC50 on Bcl-xL is 5.2 ± 0.6 nM; in experiment [1], above 2000 nM; in [2] (Mus musculus, MEF, 72 h, 3 days, WST assay) it was 5 ± 3 nM; in the experiment with H1963, 5 ± 2 nM; in the experiment on H211, 6 ± 5 nM; in the experiment with H187 it was 31 ± 4 nM. The IC50 in the experiment on DMS79 is 54 ± 30 nM; in the experiment on SW1271 it was 306 ± 116 nM; in the experiment on DMS273, above 2000 nM. Further, on Bcl-xL, the Ki was below 1 nM. In experiment [2] (MCL1−/− cells), the “times more potent than ABT-263 in inhibition of cell growth” value is on record as around 8 times. Also, the “insensitive cell lines in which depletion of MCL1 dramatically enhanced inhibitory activity” value in [3] is on record as 4 of 5.
